Reference: patent US9186318B2, “Quinolyl-containing hydroxamic acid compound and preparation method thereof, and pharmaceutical composition containing this compound and use thereof” (Beijing Konruns Pharmaceutical Co., Ltd, priority 2011, dated 2015)

Tests used:
[1] = system: GTL-16 gastric cancer cells; test: Anti-tumor experiment in xenograft nude mice; type: in vivo, BALB/c-nu/nu mice; conditions: GTL-16 xenograft nude mice, 75 mg/kg oral gavage once a day; for Tumor Growth Inhibition (TGI): 14 days; for average tumor volume: after 14 days, mean±SD, n=6
From the text: In this example, N1′-[3-fluoro-4-[[7-[[1-[2-(hydroxyamino)-2-oxoethyl]-4-piperidyl]methoxy]-6-methoxy-4-quinolyl]oxy]phenyl]-N1-(4-fluorophenyl)cyclopropane-1,1-dicarboxamide prepared in Example 1 was used to conduct anti-tumor experiment in xenograft nude mice animal models of human gastric cancer. The method and results of the experiment were as follows.
4 to 5-week-old SPF level female BALB/c-nu/nu mice with body weight of 12 g to 16 g were purchased from Beijing Vital River Laboratory Animal Technology Co., Ltd., with the production license number: SCXK (Beijing) 2006. GTL-16 gastric cancer cells were purchased from Shanghai Institutes for Biological Sciences Cell Resource Center. RPM 1-1640 cell culture media, fetal bovine serum (FBS) and trypsin digestion solution were purchased from Gibco. Various antibiotics were purchased from Sigma.
(§1) GTL-16 gastric cancer cells were firstly cultured: GTL-16 cell lines were inoculated in RPM 1-1640 culture medium contain 10% FBS, 100 U/ml penicillin, 100 U/ml streptomycin and cultured under the condition of 37° C., 5% CO2 and 100% humidity in a carbon dioxide incubator. The logarithmic growth phase reached upon 24 h, and the cells completely covered the bottom of the culture flask at approximately 48 h after inoculation. Those with 80% of GTL-16 cells covering the bottom of the culture flask were digested and centrifuged at 1000 r/min for 5 min. The cells were diluted to 2×10^7/ml, and implanted subcutaneously in the right anterior axillary of the nude mice at 0.1 mL per mouse. Starting from 12 days after inoculation of tumor cells, the weight of the tumor-bearing nude mice and the size of tumors were measured, and the mice with tumor sizes ranging from 150-200 mm^3 were randomly divided into vehicle control group (Vehicle was 0.25% methanesulfonic acid) and treatment group in which the mice were treated with N1′-[3-fluoro-4-[[7-[[1-[2-(hydroxyamino)-2-oxoethyl]-4-piperidyl]methoxy]-6-methoxy-4-quinolyl]oxy]phenyl]-N1-(4-fluorophenyl)cyclopropane-1,1-dicarboxamide prepared in Example 1 with 6 mice each group. Thereafter, the nude mice were weighed daily and the oral administrations were performed at 0.1 mL/10 g body-weight through oral gavage method (75 mg/kg, once a day). The tumor size of each animal was measured every 2 days. 14 days later, the tumor-bearing mice were sacrificed by cervical dislocation and the tumors were removed and weighed. The calculation method of Tumor Growth Inhibition (TGI) was as follows: the experimental data were represented by mean±SD; TGI=[(Vvehicle group−Vtreatment group)÷Vvehicle group]×100%, wherein Vvehicle group represented the mice tumor volume of the vehicle group and Vtreatment group represented the mice tumor volume of the treatment group. […]

[2] = Body weight of mice in the anti-tumor experiment; type: in vivo, BALB/c-nu/nu mice; conditions: treatment group, 75 mg/kg oral once a day; after 14 days treatment
Procedure: as §1, with “Thereafter, the nude mice were weighed daily and the oral administrations were performed at 0.1 mL/10 g body-weight through oral gavage method (75 mg/kg, once a day).” left out, “days.” for “days. 14 days later, the tumor-bearing mice were sacrificed by cervical dislocation and the tumors were removed and weighed. The calculation method of Tumor Growth Inhibition (TGI) was as follows: the experimental data were represented by mean±SD; TGI=[(Vvehicle group−Vtreatment group)÷Vvehicle group]×100%, wherein Vvehicle group represented the mice tumor volume of the vehicle group and Vtreatment group represented the mice tumor volume of the treatment group.”

Row | Compound | Tumor Growth Inhibition (TGI) [1] [%] | average tumor volume [1] [mm^3] | weight variation of mice [2] [%]
1 | COc1cc2c(Oc3ccc(NC(=O)C4(C(=O)Nc5ccc(F)cc5)CC4)cc3F)ccnc2cc1OCCCC(=O)NO [Example 9, N1′-[3-fluoro-4-[[7-[4-(hydroxyamino)-4-oxobutoxy]-6-methoxy-4-quinolyl]oxy]phenyl]-N1-(4-fluorophenyl)cyclopropane-1,1-dicarboxamide] | 87 | 241.1±131.4 | 
2 | COc1cc2c(Oc3ccc(NC(=O)C4(C(=O)Nc5ccc(F)cc5)CC4)cc3F)ccnc2cc1OCC1CCN(CC(=O)NO)CC1 [Example 1, N1′-[3-fluoro-4-[[7-[[1-[2-(hydroxyamino)-2-oxoethyl]-4-piperidyl]methoxy]-6-methoxy-4-quinolyl]oxy]phenyl]-N1-(4-fluorophenyl)cyclopropane-1,1-dicarboxamide] | 65 | 630.9±354.6 | < 10
